The text below walks through data of patent publication US12559733B2, “Optimization of type IV BRAF inhibitors for the treatment of melanoma” (UNIVERSITY OF SOUTH CAROLINA, priority 2020, dated 2026).

Like-named read-outs stand apart in the source and are kept apart here. Where a SMILES comes first, the peptide text is derived from it. Bridges are numbered along the chain shown (N, C = ends). Where no end group is shown, it is not given here. [ ]: non-standard residue; d: D form. The star is where a group is joined. NMeR = CN[C@@H](CCCNC(=N)N)C(=O)O; X1 = CC(C)CCOc1ccc(CCN*)cc1; Orn = NCCC[C@H](N)C(=O)O; Bz = O=C(c1ccccc1)*

The target in series [1] is T1, B-Raf (Homo sapiens, UniProt P15056). Description: Dissociation constant (Kd) determination from intrinsic Trp fluorescence (ITF). The note with it: for Kd, binding affinity to the dimer forming interface of B-Raf: FIG. 1, unit not given. In kind it is binding.
T1 sequence (P15056 whole entry): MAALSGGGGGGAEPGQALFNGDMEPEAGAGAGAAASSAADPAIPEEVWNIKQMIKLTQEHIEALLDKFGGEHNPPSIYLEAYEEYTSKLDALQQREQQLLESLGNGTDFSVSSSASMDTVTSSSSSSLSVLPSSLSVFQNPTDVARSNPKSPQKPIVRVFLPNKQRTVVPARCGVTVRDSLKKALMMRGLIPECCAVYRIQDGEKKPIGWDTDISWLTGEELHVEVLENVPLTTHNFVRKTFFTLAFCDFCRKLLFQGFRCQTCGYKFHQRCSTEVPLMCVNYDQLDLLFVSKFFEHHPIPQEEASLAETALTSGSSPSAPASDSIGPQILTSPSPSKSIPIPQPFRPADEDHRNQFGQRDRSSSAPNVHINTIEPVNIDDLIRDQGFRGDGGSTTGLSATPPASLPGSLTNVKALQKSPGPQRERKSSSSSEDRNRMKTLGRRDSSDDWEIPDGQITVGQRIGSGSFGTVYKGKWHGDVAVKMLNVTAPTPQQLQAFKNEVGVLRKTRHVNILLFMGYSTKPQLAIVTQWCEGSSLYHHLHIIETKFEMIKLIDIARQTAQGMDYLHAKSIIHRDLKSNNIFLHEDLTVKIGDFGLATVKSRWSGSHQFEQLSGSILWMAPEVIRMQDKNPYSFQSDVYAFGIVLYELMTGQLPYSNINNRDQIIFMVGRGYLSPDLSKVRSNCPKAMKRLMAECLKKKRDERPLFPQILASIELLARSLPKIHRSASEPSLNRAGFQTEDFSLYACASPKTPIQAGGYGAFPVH
For series [2], the target named is dimer forming interface (Homo sapiens, UniProt P15056). Description: Kd (μM).
dimer forming interface, sequence (P15056 2-766 limits assumed): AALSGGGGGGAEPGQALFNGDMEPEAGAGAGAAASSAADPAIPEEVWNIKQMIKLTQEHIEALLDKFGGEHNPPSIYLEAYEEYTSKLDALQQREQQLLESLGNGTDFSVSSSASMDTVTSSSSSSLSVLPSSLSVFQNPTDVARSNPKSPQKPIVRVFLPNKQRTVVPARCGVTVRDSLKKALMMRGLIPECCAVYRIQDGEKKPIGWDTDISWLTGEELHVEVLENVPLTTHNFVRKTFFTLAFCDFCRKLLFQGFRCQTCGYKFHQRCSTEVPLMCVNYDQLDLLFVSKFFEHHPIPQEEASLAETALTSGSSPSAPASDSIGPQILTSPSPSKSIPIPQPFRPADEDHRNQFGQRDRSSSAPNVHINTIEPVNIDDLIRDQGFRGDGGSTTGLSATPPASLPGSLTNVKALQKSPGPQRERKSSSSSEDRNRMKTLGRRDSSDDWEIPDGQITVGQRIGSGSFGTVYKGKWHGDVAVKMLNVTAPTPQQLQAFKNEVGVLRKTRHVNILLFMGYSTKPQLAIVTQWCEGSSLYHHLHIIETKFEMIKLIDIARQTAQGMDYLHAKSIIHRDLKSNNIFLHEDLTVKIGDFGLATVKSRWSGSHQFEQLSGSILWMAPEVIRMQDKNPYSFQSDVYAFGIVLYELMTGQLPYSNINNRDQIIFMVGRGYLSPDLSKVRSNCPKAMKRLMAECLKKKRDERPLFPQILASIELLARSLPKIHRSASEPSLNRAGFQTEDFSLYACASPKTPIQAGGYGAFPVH
Description: Head of the field: Kd (μM)
A measured dissociation constant Kd is provided for each peptide.
First copying reader's note: The Kd cells hold value ± error together; NT and NB are not explained on the sheet.
Series [3] in a line: Parallel artificial membrane permeability assay (PAMPA). It counts as in vitro ADME. To be noted: phospholipid and dodecane artificial membrane, mass spectroscopy. How it is done:
A parallel artificial membrane permeability assay (PAMPA) was carried out using phospholipid and dodecane as the artificial membrane.
Background: The PAMPA barrier holds no transporters, so it reflects passive diffusion.

For series [4], the target named is T1, B-Raf. Description: Isothermal Titration Calorimetry (ITC) of B-Raf binding of peptides. For orientation: Isothermal titration calorimetry measures the heat released or taken up as one component is titrated into another.
Description: Isothermal Titration Calorimetry (ITC) of B-Raf Binding of Peptides
An isothermal titration calorimeter composed of two identical cells surrounded by an adiabatic jacket was used to perform ITC measurements. The thermopile/thermocouple circuits were used to detect temperature differences between a reference cell (filled with buffer or water) and a sample cell containing the macromolecule. During an experiment, ligand is titrated into the sample cell in precisely known aliquots, causing heat to be either taken up or evolved (depending on the nature of the reaction). Measurements consist of the time-dependent input of power required to maintain equal temperatures between the sample and reference cells. In an exothermic reaction, the temperature in the sample cell increases upon addition of ligand. This causes the feedback power to the sample cell to be decreased (remember: a reference power is applied to the reference cell) in order to maintain an equal temperature between the two cells. In an endothermic reaction, the opposite occurs; the feedback circuit increases the power in order to maintain a constant temperature (isothermic/isothermal operation). […] The pattern of these heat effects as a function of the molar ratio [ligand]/[macromolecule] can then be analyzed to give the thermodynamic parameters of the interaction under study.
Series [5] deals with NRASQ61K-mutant SBcl2 melanoma cells. Description: Western blotting of MEK/ERK signalling in melanoma cells treated with peptide and PLX4032. To be noted: FIG. 2A, cells electroporated with peptide, 1 μM PLX4032 1 hour or DMSO. It counts as cell-based, human. In general terms: Immunoblotting shows a protein as a band on a membrane.
Protocol: Following recovery at 37° C. for 30 minutes, the cells were treated with 1 μM PLX4032 for 1 hour or DMSO as a vehicle control. Subsequently, the cells were harvested, lysed using RIPA buffer and analyzed by Western blotting using the indicated antibodies. […] Four hours prior to harvest, the cells were treated with 1 μM vemurafenib (PLX4032), or the same volume of DMSO as vehicle control. RIPA buffer lysates were subjected to Western blotting using the indicated antibodies. Detection of Hsp90 served as a representative loading control.
NRAS^Q61K-mutant SBCl2 melanoma cells were electroporated with the BioRad Gene Pulser XCell™ in the presence of the indicated concentrations of peptide. Following recovery at 37° C. for 30 minutes, cells were treated with 1 μM PLX4032 for 1 hour or DMSO as a vehicle control. Subsequently, the cells were harvested, lysed using RIPA buffer, and analyzed by Western blotting using the indicated antibodies.
Series [6] has as its system SBcl2 melanoma cell. In words: Melanoma cell growth / colony formation. In kind it is cell-based, human.

Regarding GVLRKTRHVNILLDMGYST [SEQ ID NO:14], the “Kd, binding affinity to the dimer forming interface of B-Raf” value in series [1] was “no measurable binding”. Turning to VLRKTRAVNILLFMG [compound 25], the Kd (in general, the equilibrium constant for the complex coming apart) in series [2] was 2700 ± 400 nM. In the case of `CSCC[C@H](NC(=O)[C@H](Cc1ccccc1)NC(=O)[C@H](CCC(C)C)NC(=O)[C@H](CC(C)C)NC(=O)[C@@H]1CCC(=O)NCCC[C@H](NC(=O)[C@H](CCCCN)NC(=O)[C@H](CCCNC(=N)N)NC(=O)[C@H](CC(C)C)NC(=O)[C@@H](N)C(C)C)C(=O)N[C@@H](CCCNC(=N)N)C(=O)N[C@@H](Cc2c[nH]cn2)C(=O)N[C@@H](C(C)C)C(=O)N[C@@H](C)C(=O)N1)C(=O)NCC(N)=O` [compound 57], the affinity in series [1], expressed as Kd, was 430 ± 30 nM. For the molecule VLRKTRHVNILLFAG [compound 30], in series [2], the Kd came to 540 ± 150 nM.

Consider GVLRKTRFVNILLFMGYST [SEQ ID NO: 9], for which the “Kd, binding affinity to the dimer forming interface of B-Raf” value in series [1] is given as “no measurable binding”. Still for that read-out and setting: as for GVLRKTHHVNILGFWGYST [SEQ ID NO: 2], the entry is “no measurable binding”.

In turn, VARKTRHVNILLFMG [compound 21] had a Kd in series [2] of 450 ± 30 nM. In the case of `CSCC[C@H](NC(=O)[C@H](Cc1ccccc1)NC(=O)[C@H](CC(C)C)NC(=O)[C@H](CC(C)C)NC(=O)[C@@H]1CCC(=O)NCCCC[C@H](NC(=O)[C@H](CCCCN)NC(=O)[C@H](CCCNC(=N)N)NC(=O)[C@H](CC(C)C)NC(=O)[C@@H](N)C(C)C)C(=O)N(C)[C@@H](CCCNC(=N)N)C(=O)N[C@@H](Cc2c[nH]cn2)C(=O)N[C@@H](C(C)C)C(=O)N[C@@H](C)C(=O)N1)C(=O)NCC(N)=O` [compound 60], the Kd in series [1] worked out at 39 ± 20 nM. As for VLRKTAHVNILLFMG [compound 24], the Kd in series [2] is 2400 ± 350 nM. `CSCC[C@H](NC(=O)[C@H](Cc1ccccc1)NC(=O)[C@H](CC(C)C)NC(=O)[C@H](CC(C)C)NC(=O)[C@@H]1CCC(=O)NCCCC[C@H](N)C(=O)N[C@@H](CCCNC(=N)N)C(=O)N[C@@H](Cc2c[nH]cn2)C(=O)N[C@@H](C(C)C)C(=O)N[C@@H](C)C(=O)N1)C(=O)NCC(N)=O` [compound 47] (H-KRHVAELLFMG-NH2; lactam 1-6) had a Kd in series [1] of 590 ± 20 nM.

Take `CSCC[C@H](NC(=O)[C@H](Cc1ccccc1)NC(=O)[C@H](CC(C)C)NC(=O)[C@H](CC(C)C)NC(=O)[C@@H]1CCC(=O)NCCCC[C@H](NC(=O)[C@H](CCCCN)NC(=O)[C@H](CCCNC(=N)N)NC(=O)[C@@H](N)CC(C)C)C(=O)N[C@@H](CCCNC(=N)N)C(=O)N[C@@H](Cc2c[nH]cn2)C(=O)N[C@@H](C(C)C)C(=O)N[C@@H](C)C(=O)N1)C(=O)NCC(N)=O` [compound 38]: in series [3], the passive permeability result is listed as “no detectable trace of passive permeability”. The molecule VLRKTRHVNILLAMG [compound 29] had a Kd in series [2] of 570 ± 80 nM. As to `CC(C)CCOc1ccc(CCNC(=O)[C@@H]2CCC(=O)NCCCC[C@H](NC(=O)c3ccccc3)C(=O)N(C)[C@@H](CCCNC(=N)N)C(=O)N[C@H](C)C(=O)N3CCC[C@H]3C(=O)N[C@@H](C)C(=O)N2)cc1` [compound 64] (Bz-K[NMeR][dA]PAE-X1; lactam 1-6), the passive permeability entry in series [3] was “no detectable trace of passive permeability”.

Consider `CSCC[C@H](NC(=O)[C@H](Cc1ccccc1)NC(=O)[C@H](CC(C)C)NC(=O)[C@H](CC(C)C)NC(=O)[C@@H]1CCC(=O)NCCCC[C@H](NC(=O)[C@H](CCCCN)NC(=O)[C@H](CCCNC(=N)N)NC(=O)[C@H](CC(C)C)NC(=O)[C@@H](N)C(C)C)C(=O)N[C@@H](CCCNC(=N)N)C(=O)N[C@@H](Cc2c[nH]cn2)C(=O)N[C@@H](C(C)C)C(=O)N[C@@H](CC(N)=O)C(=O)N1)C(=O)NCC(N)=O` [compound 53], for which, in series [1], binding was characterised by a dissociation constant (Kd) of 1890 ± 330 nM. In series [4] (change in enthalpy), `CC[C@H](C)[C@H](NC(=O)[C@H](CC(N)=O)NC(=O)[C@@H](NC(=O)[C@H](Cc1c[nH]cn1)NC(=O)[C@H](CCCNC(=N)N)NC(=O)[C@H](C)NC(=O)[C@H](CCCCN)NC(=O)[C@H](CCCNC(=N)N)NC(=O)[C@H](CC(C)C)NC(=O)[C@@H](NC(=O)CN)C(C)C)C(C)C)C(=O)N[C@@H](CC(C)C)C(=O)N[C@@H](CC(C)C)C(=O)N[C@@H](Cc1ccccc1)C(=O)N[C@@H](CCSC)C(=O)NCC(=O)N[C@@H](Cc1ccc(O)cc1)C(=O)N[C@@H](CO)C(=O)N[C@H](C(=O)O)[C@@H](C)O` [SEQ ID NO: 8] returned a ΔH of -34.8 kJ/mol. In series [4] (change in entropy, text b156), this molecule displayed a ΔS of −28.4 J/mol·K. Consider `CC[C@H](C)[C@H](NC(=O)[C@H](CC(N)=O)NC(=O)[C@@H](NC(=O)[C@H](Cc1c[nH]cn1)NC(=O)[C@H](CCCNC(=N)N)NC(=O)[C@@H](NC(=O)[C@H](CCCCN)NC(=O)[C@H](CCCNC(=N)N)NC(=O)[C@H](CC(C)C)NC(=O)[C@@H](NC(C)=O)C(C)C)[C@@H](C)O)C(C)C)C(=O)N[C@@H](CC(C)C)C(=O)N[C@@H](CC(C)C)C(=O)N[C@@H](Cc1ccccc1)C(=O)N[C@@H](CCSC)C(=O)NCC(=O)O` [compound 19], for which the affinity in series [2], expressed as Kd, was 800 ± 83 nM. Regarding `CC[C@H](C)[C@H](NC(=O)[C@H](CC(N)=O)NC(=O)[C@@H](NC(=O)[C@H](Cc1cnc[nH]1)NC(=O)[C@H](CCCNC(=N)N)NC(=O)[C@@H](NC(=O)[C@H](CCCCN)NC(=O)[C@H](CCCNC(=N)N)NC(=O)[C@H](CC(C)C)NC(=O)[C@@H](NC(=O)CN)C(C)C)[C@@H](C)O)C(C)C)C(=O)N[C@@H](CC(C)C)C(=O)N[C@@H](CC(C)C)C(=O)N[C@@H](Cc1ccccc1)C(=O)N[C@@H](CCSC)C(=O)NCC(=O)N[C@@H](Cc1ccc(O)cc1)C(=O)N[C@@H](CO)C(=O)N[C@H](C(=O)O)[C@@H](C)O` [SEQ ID NO: 1], in series [3], the passive permeability result is given as “no detectable trace of passive permeability”. Also, the “downstream signaling of MEK and ERK (pMEK, pERK)” value in series [5] is “reduce downstream signaling of MEK and ERK”. With GVLAATAAVNALLFAGYST [SEQ ID NO: 68], the “concentration that impaired cell growth” value in series [6] (SBcl2 melanoma cells) was determined as 7.2 µM. In series [6] (control vs FAM-TAT-SEQ ID NO: 17), the “growth-impairing concentration relative to the test sequence” value is recorded as 4 fold.

For VLRKTRHVNILLFM [compound 16], the Kd in series [1] (Table 2, binding affinity with BRAF, cyclized vs linear peptides, read-out: Kd) turned out to be 5750 ± 1200 nM. LLKTRHVNILLFMG [compound 32] came in with a Kd in series [2] of 550 ± 105 nM. Consider VLAKTRHVNILLFMG [SEQ ID NO: 22], for which, in series [2], the Kd turned out to be 360 ± 30 nM. In series [1], `CSCC[C@H](NC(=O)[C@H](Cc1ccccc1)NC(=O)[C@H](CC(C)C)NC(=O)[C@H](CC(C)C)NC(=O)[C@@H]1CCC(=O)NCCCC[C@H](NC(=O)[C@H](CCCCN)NC(=O)[C@H](CCCNC(=N)N)NC(=O)[C@H](CC(C)C)NC(=O)[C@@H](N)C(C)C)C(=O)N[C@@H](CCCNC(=N)N)C(=O)N[C@@H](Cc2c[nH]cn2)C(=O)N[C@@H](C(C)C)C(=O)N[C@@H](C)C(=O)N1)C(=O)NCC(N)=O` [compound 59] displayed a Kd of 61 ± 10 nM.

Consider VLRKTRHVNIALFMG [compound 28], for which the Kd in series [2] came to 1020 ± 140 nM. Consider VLRKTRHVNALLFMG [compound 27], for which, in series [2], the Kd came to 2690 ± 350 nM. The molecule `CC[C@H](C)[C@H](NC(=O)[C@H](CC(C)C)NC(=O)[C@@H]1CCC(=O)NCCC[C@H](NC(=O)[C@H](CCCCN)NC(=O)[C@H](CCCNC(=N)N)NC(=O)[C@H](CC(C)C)NC(=O)[C@@H](N)C(C)C)C(=O)N[C@@H](CCCNC(=N)N)C(=O)N[C@@H](Cc2c[nH]cn2)C(=O)N[C@@H](C(C)C)C(=O)N[C@@H](C)C(=O)N1)C(=O)N[C@@H](Cc1ccccc1)C(=O)N[C@@H](CCSC)C(=O)NCC(N)=O` [compound 58] (H-VLRK[Orn]RHVAELIFMG-NH2; lactam 5-10; N-terminus assumed) showed a Kd in series [1] of 170 ± 60 nM. The same measure, in the same setting: as for `CSCC[C@H](NC(=O)[C@H](Cc1ccccc1)NC(=O)[C@H](CC(C)C)NC(=O)[C@H](CC(C)C)NC(=O)[C@@H]1CCC(=O)NCCCC[C@H](N)C(=O)N[C@@H](CCCNC(=N)N)C(=O)N[C@@H](Cc2c[nH]cn2)C(=O)N2CCC[C@H]2C(=O)N[C@@H](C)C(=O)N1)C(=O)NCC(N)=O` [compound 61] (H-KRHPAELLFMG-NH2; lactam 1-6), the figure is 160 ± 20 nM. Turning to LRKTRHVNILLFMG [SEQ ID NO: 31], the Kd in series [2] came to 190 ± 130 nM. `CC(C)[C@@H]1NC(=O)[C@H](Cc2c[nH]cn2)NC(=O)[C@H](CCCNC(=N)N)NC(=O)[C@@H](N)CCCCNC(=O)CC[C@@H](C(N)=O)NC(=O)[C@H](C)NC1=O` [compound 48] (H-KRHVAE-NH2; lactam 1-6): the passive permeability entry in series [3] is listed as “no detectable trace of passive permeability”. The Kd in series [1] amounted to 300 ± 30 nM.
